Measurements: article PMC10233829 (ACS Omega, 2023)

Test system: S. aureus ATCC 6538 biofilm
Test: Biofilm eradication assay (crystal violet)
Type: cell-based, Staphylococcus aureus
Settings: 4–2 MIC
Description: Three bacterial strains E. coli ATCC 25922, P. aeruginosa ATCC 15442, and S. aureus ATCC 6538 were used to assign biofilm eradication properties of compounds 5, 10, 11, and CP as the reference drug. To quantify the biomass of the bacteria biofilm, the crystal violet method was used with some modifications.[52] The bacteria were incubated to the mid-log phase, diluted to 103 cfu/mL in brain–heart infusion medium, and seeded in a 96-well plate. Bacterial biofilms were formed by overnight incubation at 37 °C with rotation at 140 rpm. After biofilm formation, all wells were washed with PBS to remove nonadherent bacteria cells. […] The biofilms with tested substances were incubated for 20 h at 37 °C with shaking at 140 rpm. The bacterial biofilm was stained with 0.1% (v/v) CV for 10 min. Afterward, the biofilm was rinsed with PBS and dried. To solubilize the adsorbed crystal violet, wells with stained biofilms were incubated in 30% acetic acid. To estimate the total biofilm biomass, optical density (OD) of the resulting solution was measured at 595 nm. Biofilm assays were repeated at least three times on different days, with two technical replicates assessed each time. A minimum eradication concentration (MBEC) was determined as the lowest concentration of compound, which could damage ≥50% of the formed biofilm structure.

For `O=C(O)c1cn(C2CC2)c2cc(N3CCN(C(=O)CCCCBr)CC3)c(F)cc2c1=O` [Compound 11, 7-[4-(5-Bromopentanoyl)-piperazin-1-yl]-1-cyclopropyl-6-fluoro-4-oxo-1,4-dihydro-quinoline-3-carboxylic Acid], the “elimination of the mature biofilm of S. aureus ATCC 6538” value was 19–25%.
